Source: EP4650362A1, “NEUROPROTECTIVE PSD-95 POLYPEPTIDE INHIBITOR AND USE THEREOF” (Beijing Tuo Jie Biopharmaceutical Co. Ltd., priority 2023, dated 2024)
Values joined by “and” are separate entries in the source; they are usually repeats but may differ in a detail not shown here. Equal values may be shown once. Read-outs that look alike come from different tables or passages of the source. Non-standard residues stand in square brackets, D forms with d. Residues, ends and D or L forms follow the SMILES beside them. No end group written: not given here. Tle = CC(C)(C)[C@H](N)C(=O)O; Dab = NCC[C@H](N)C(=O)O; Aib = CC(C)(N)C(=O)O

What was measured:
human PSD95-PDZ2 = target: T1, human PSD95-PDZ2 (Homo sapiens, UniProt P78352); assay: competitive ELISA, affinity for human PSD95-PDZ2; assay type: binding
T1 construct: PDZ2 (155-249, the Flag-His-Avitag-TEVsite tag is italicized); made in house; host or cells: E. coli BL21-DE3 (PET vector)
From the text: The objective of this test example was to determine the affinities of polypeptide compounds for human PSD95-PDZ2 using competitive ELISAs.
The amino acid sequence of PDZ2 protein was designed using human PSD95 (Uniprot Entry: P78352) as a template for PDZ: PDZ2 (155-249, the Flag-His-Avitag-TEVsite tag is italicized and was subsequently used for purification and biotinylation): […]
[…] (SEQ ID NO. 62). The PDZ2 gene was constructed onto a PET expression vector, and induced expression was performed using BL21-DE3 E. coli cells under conditions of 37 °C and 1 mM IPTG 4 h. Then centrifugation was performed at 10,000 g at 4 °C for 10 min, and the cell pellets were collected, resuspended in 1× PBS solution, and then lysed using a homogenizer. The lysate was centrifuged at high speed, and the supernatant was collected and filtered through a 0.45 µm membrane. A Ni-Sepharose affinity column was equilibrated with 5 column volumes of a 20 mM phosphate buffer (pH 8.0). The sample was centrifuged at high speed to remove impurities and loaded onto the column for binding. The column was rinsed with the 20 mM phosphate buffer until the A280 reading dropped to the baseline. Gradient elution was then performed with the 20 mM phosphate buffer and 0-500 mM imidazole. A protein was collected, and whether it was the target protein was determined. The purified sample described above was buffer-exchanged into 1× PBS solution, and the resulting solution was concentrated to a volume of 2 mL and further purified using a Superdex200 gel chromatography column (GE) equilibrated with 1× PBS. The target peak was collected and aliquoted for later use.
PSD95-PDZ2 (the tag was removed by TEV enzyme) was diluted with 1× PBS buffer to 1 µg/mL, added to a 96-well microplate (Corning, 9018, 25/box 96-well clear flat bottom plate) at 100 µL/well, and left to stand overnight at 4 °C for 16-20 h. After the liquid was discarded, the plate was washed three times with PBST (pH 7.4, 0.05% Tween-20) buffer, and a 4% BSA blocking solution diluted with PBST buffer was then added (300 µL/well). The plate was blocked by incubation in an incubator at 37 °C for 1 h. After the blocking was complete, the blocking solution was discarded, and the plate was washed three times with PBST buffer. Biotin-NA-1, at a constant concentration of 0.3 µM, and the test compounds, having a starting concentration of 100 µM and serially diluted ten-fold with PBS buffer to seven concentrations (100, 10, 1, 0.1, 0.01, 0.001, 0.0001, and 0 µM), were then added, and the plate was incubated in an incubator at 37 °C for 1 h. After the incubation was complete, the reaction solutions in the microplate were discarded, and the plate was washed three times with PBST. 100 µL of HRP-SA secondary antibody (diluted at 1:2000) was added to each well, and the plate was incubated at 37 °C for 1 h. After the plate was washed three times with PBST, 100 µL of TMB chromogenic substrate was added. The plate was incubated at room temperature for 1-3 min, and 100 µL of 1 M sulfuric acid was added to stop the reaction.
The absorbance at 450 nm was measured using a SpectraMax M5 microplate reader, and non-linear fitting was performed using GraphPad Prism 9 to calculate the binding IC50 values of the test compounds to PSD95-PDZ2 protein.

[1] = plasma stability test, human plasma; assay type: in vitro ADME; settings: for Relative remaining compound content (%): 0min (standard 100%)
Procedure: (§1) Solution preparation: An appropriate amount of a test polypeptide compound was weighed out and dissolved in an appropriate amount of 1× PBS to form a 1 mM test solution. NA-1 and NoNO42 were used as positive drugs, propantheline bromide was used as a human plasma test control, and lovastatin was used as a rat plasma test control. Plasma stability test: 12.5 µL of the 1 mM test solution was added to a 495 µL pre-incubated plasma sample. […] For each incubation time, two parallel samples were set. Subsequently, 200 µL of stop solution was added to stop the incubation, and the mixtures were vortexed for 5 min. Then the mixtures were centrifuged at 10,000 rpm at 4 °C for 10 min to remove the protein in the sample, and 70 µL of the supernatant was transferred to a new 96-well plate (70 µL of water was added to each well beforehand) and well mixed. […] Sample pretreatment: […] LC-MS analysis: […] (2) Mass-spectrometric conditions: The mass spectrometry analysis used an electrospray ionization (ESI) source, a positive ion analysis mode, and a multi-reaction monitoring (MRM) scan mode. […] The plasma stability of the polypeptide compound

[2] = plasma stability test with alteplase added, human plasma; assay type: in vitro ADME; settings: Human plasma + rt-PA (50 µg/mL alteplase), 25 µM
Procedure: as §1, with “mixed. Plasma stability test with alteplase added: An appropriate amount of solid alteplase was weighed out, and an appropriate volume of water was added. The mixture was vortexed to dissolve alteplase, forming a 1 mg/mL solution of alteplase. 250 µL of the 1 mg/mL solution of alteplase was added to 4750 µL of plasma to form a plasma sample containing 50 µg/mL alteplase. The other procedures were the same as in the aforementioned "plasma stability test", with the difference being that the plasma sample containing 50 µg/mL alteplase was used instead of plasma.” for “mixed.”

[3] = plasma stability test with alteplase added, rat plasma; assay type: in vitro ADME; settings: Rat plasma + rt-PA (50 µg/mL alteplase), 25 µM
Procedure: as §1, with “mixed. Plasma stability test with alteplase added: An appropriate amount of solid alteplase was weighed out, and an appropriate volume of water was added. The mixture was vortexed to dissolve alteplase, forming a 1 mg/mL solution of alteplase. 250 µL of the 1 mg/mL solution of alteplase was added to 4750 µL of plasma to form a plasma sample containing 50 µg/mL alteplase. The other procedures were the same as in the aforementioned "plasma stability test", with the difference being that the plasma sample containing 50 µg/mL alteplase was used instead of plasma.” for “mixed.”

[4] = competitive ELISA against 0.3 µM Biotin-NA-1, error of this test within three times, read-out: IC50
[5] = Human plasma, 25 µM, 10min, read-out: Relative remaining compound content (%)
[6] = Human plasma, 25 µM, 20min, read-out: Relative remaining compound content (%)
[7] = Human plasma, 25 µM, 30min, read-out: Relative remaining compound content (%)
[8] = Human plasma, 25 µM, 60min, read-out: Relative remaining compound content (%)
[9] = Human plasma, 25 µM, 120min, read-out: Relative remaining compound content (%)

Row | Molecule | IC50 (human PSD95-PDZ2) | IC50 (human PSD95-PDZ2; [4]) | Relative remaining compound content (%) ([1]; Human plasma, 25 µM) | remaining at 10 min, 25 µM [1, 5] | remaining at 20 min, 25 µM [1, 6] | remaining at 0.5 h, 25 µM [1, 7] | remaining at 1 h, 25 µM [1, 8] | remaining at 2 h, 25 µM [1, 9] | Relative remaining compound content (%) ([2]; 0min (standard 100%)) | Relative remaining compound content (%) ([2]; 10min) | Relative remaining compound content (%) ([2]; 20min) | Relative remaining compound content (%) ([2]; 30min) | Relative remaining compound content (%) ([2]; 60min) | Relative remaining compound content (%) ([2]; 120min) | Relative remaining compound content (%) ([3]; 0min (standard 100%)) | Relative remaining compound content (%) ([3]; 10min) | Relative remaining compound content (%) ([3]; 20min) | Relative remaining compound content (%) ([3]; 30min) | Relative remaining compound content (%) ([3]; 60min) | Relative remaining compound content (%) ([3]; 120min) | other results
1 | CC[C@H](C)[C@H](NC(=O)[C@H](CO)NC(=O)[C@H](CO)NC(=O)[C@H](CC(C)C)NC(=O)[C@@H](CCCCN)NC(=O)[C@H](CCCNC(=N)N)NC(=O)[C@H](CCCNC(=N)N)NC(=O)[C@@H](CCCNC(=N)N)NC(=O)[C@H](CCC(N)=O)NC(=O)[C@@H](CCCNC(=N)N)NC(=O)[C@H](CCCNC(=N)N)NC(=O)[C@H](CCCCN)NC(=O)[C@H](CCCCN)NC(=O)[C@@H](CCCNC(=N)N)NC(=O)CNC(=O)[C@@H](N)Cc1ccc(O)cc1)C(=O)N[C@@H](CCC(=O)O)C(=O)N[C@@H](CO)C(=O)N[C@@H](CC(=O)O)C(=O)N[C@H](C(=O)O)C(C)C [NoNO42, YGrKKRrQrRRkLSSIESDV, reference compound] (H-YG[dR]KKR[dR]Q[dR]RR[dK]LSSIESDV-OH) | 0.917 µM | – | – | – | – | – | – | – | – | – | – | – | – | – | – | – | – | – | – | – | remaining at 10 min, 25 µM ([1]; human, plasma): 104%; remaining at 20 min, 25 µM ([1]; human, plasma): 104%; remaining at 0.5 h, 25 µM ([1]; human, plasma): 107%; remaining at 1 h, 25 µM ([1]; human, plasma): 99.3%; remaining at 2 h, 25 µM ([1]; human, plasma): 107%
2 | CC(C)[C@H](NC(=O)[C@H](CC(=O)O)NC(=O)[C@@H](NC(=O)[C@@H](NC(=O)[C@@H](NC(=O)[C@@H](NC(=O)[C@H](CCN)NC(=O)C(C)(C)NC(=O)CNC(=O)[C@@H](CCCNC(=N)N)NC(=O)[C@@H](CCCNC(=N)N)NC(=O)[C@@H](CCCNC(=N)N)NC(=O)[C@@H](CCC(N)=O)NC(=O)[C@@H](CCCNC(=N)N)NC(=O)[C@@H](CCCNC(=N)N)NC(=O)[C@@H](CCCCN)NC(=O)[C@@H](CCCCN)NC(=O)[C@@H](CCCNC(=N)N)NC(=O)CNC(=O)[C@H](N)Cc1ccc(O)cc1)[C@@H](C)O)C(C)(C)C)C(C)(C)C)[C@@H](C)O)C(=O)O [Polypeptide compound 14, y-G-r-k-k-r-r-q-r-r-r-G-Aib-Dab-T-Tle-Tle-T-D-V] (H-[dY]G[dR][dK][dK][dR][dR][dQ][dR][dR][dR]G[Aib][Dab]T[Tle][Tle]TDV-OH) | – | 0.713 µM | 100.0% | 102% | 101% | 97.3% | 103% | 105% | 100.0% | 98.6% | 89.8% | 85.8% | 91.2% | 92.3% | 100.0% | 95.6% | 90.4% | 104.9% | 105.4% | 96.7% | –
3 | CC(C)[C@H](NC(=O)[C@H](CC(=O)O)NC(=O)[C@@H](NC(=O)[C@@H](NC(=O)[C@@H](NC(=O)[C@@H](NC(=O)[C@H](CCN)NC(=O)C(C)(C)NC(=O)CNC(=O)[C@@H](CCCNC(=N)N)NC(=O)[C@H](CCCNC(=N)N)NC(=O)[C@H](CCCNC(=N)N)NC(=O)[C@H](CCC(N)=O)NC(=O)[C@@H](CCCNC(=N)N)NC(=O)[C@H](CCCNC(=N)N)NC(=O)[C@H](CCCCN)NC(=O)[C@H](CCCCN)NC(=O)[C@H](N)CCCNC(=N)N)[C@@H](C)O)C(C)(C)C)C(C)(C)C)[C@@H](C)O)C(=O)O [Polypeptide compound 22, r-K-K-R-r-Q-R-R-r-G-Aib-Dab-T-Tle-Tle-T-D-V] (H-[dR]KKR[dR]QRR[dR]G[Aib][Dab]T[Tle][Tle]TDV-OH) | – | 0.881 µM | 100.0% | 99.5% | 97% | 104% | 98% | 90.1% | 100.0% | 97.9% | 95.8% | 102.8% | 91.3% | 95.6% | 100.0% | 83.4% | 72.2% | 48.2% | 13.7% | 8.1% | –
4 | YGRKKRRQRRRKLSSIESDV [NA-1, YGRKKRRQR RRKLSSIESDV, reference compound] | 0.909 µM | – | 100.0% | 76.4% | 74.9% | 70.6% | 53.9% | 25.1% | 100.0% | 23.9% | 7.6% | 3.4% | 0.9% | 0.3% | 100.0% | 6.3% and 14.0% | 2.2% | 0.8% | – | – | –
